The NIST ThermoML archive (doi:10.1021/je1010054)
Numbers after ± are expanded uncertainties.

Settings: Crystal; visual observation

O=C1C=CC(=O)N1c1cc(F)c(Br)c(F)c1 [1-(4-bromo-3,5-difluorophenyl)-1H-pyrrole-2,5-dione]
Normal melting temperature: 197.50 ± 0.53 °C
